# Experimental data: patent US20090023784A1, “USE OF DEFERIPRONE AND METHODS TO TREAT AND/OR PREVENT FRIEDREICH ATAXIA RESULTING FROM INTRACELLULAR MISHANDLING OF IRON” (priority 2006, published 2009)
# Assays:
# [1] = Serum deferiprone time-concentration profile (HPLC) in the 52-week monkey study; format: in vivo, cynomolgus monkeys; conditions: 75 mg/kg twice daily
# Procedure: Groups of 4 male and 4 female monkeys (2 to 3 years old) were dosed by nasogastric intubation at (0.5% w/v aqueous carboxymethylcellulose vehicle) 75 mg/kg deferiprone twice daily (bid), with 6-8 hours between doses, for at least 364 days.
# Clinical signs, body weights and food intake were assessed at frequent intervals. Ophthalmological and cardiovascular examinations were carried out in Weeks 17, 30, 43, 56 and 60. Hematology, coagulation, clinical chemistry and urine parameters were measured at baseline and in Weeks 8, 16, 30, 41, 56 and 60. Blood samples were taken on the first day of dosing, and in Weeks 17 and 56 for assessment of the serum deferiprone time-concentration profile. A full necropsy was performed on each animal, selected organs weighed, and histopathological examination of abnormalities and selected tissues conducted.
# [2] = test system: iron-loaded rats; experiment: Tissue iron content (ICP-MS) in iron-loaded rats treated with deferiprone; format: in vivo; conditions: 100 mg/kg daily oral gavage
# Procedure: As part of a larger study comparing iron chelators, we conducted histologic examination and electron microscopy (EM) of tissues following iron loading (100 mg/kg iron dose intraperitoneally twice weekly for four weeks) in rats (200-250 g) and treatment with deferiprone. Two control groups of rats were studied, one with no iron loading (“Naïve”) and the other with iron loading but no iron chelation.
# Deferiprone was administered five times weekly (daily Monday to Friday). The animals received 89 doses in 127 days of 100 mg/kg daily, by oral gavage.
# Iron content in micrograms per gram dry tissue±SD as determined by ICP-MS
# [3] = test system: iron accumulation in dentate nuclei; experiment: MRI R2* measurement of brain iron in the pilot trial; format: in vivo, human; conditions: 20-30 mg/kg/day oral, patients before 17.4±1.6, controls 13.7±0.6
# Source text: Multiple-gradient echo sequence was used to monitor the iron concentrations in the brain (Waldvogel et al. Increased iron in the dentate nucleus of patients with Friedrich's ataxia. Ann Neurol 1999; 46:123-5), using a 1.5T Signa unit (GE Medical Systems, Milwaukee, Wisc., USA) using phase array head coil. Deep gray structures were localized by using a T2*-weighted echo-planar sequence (TR 3000 ms, TE 60 ms, eight averages, field of view: 24 cm, 256×224 matrix and slice thickness : 5 mm, 24 slices/1.1 min). A voxel englobing the left and right nuclei was positioned on the largest section of dentate nuclei (dimensions 6×3×2 cm^3). Data acquisition allowing iron monitoring was performed by using a single-slice multi-gradient-echo sequence (TR: 400 ms, flip angle: 50° to maximize gray matter signal, acquisition time: 3 minutes).
# The determination of R2* was performed by using data of the multi-gradient echo sequence. In each pixel, the signals Si of the ten images obtained at echo times TEi (−i=1.10) were used to calculate the parameter R2* by adjustment of the signal decay according to the equation Si=So.exp (−R2*.TEi). A parametric image of local R2* values was calculated with the same spatial resolution than the native images. The mean value of R2* was calculated in various regions of interest, all determined by the same experimental radiologist. […]
# [4] = Pilot trial: adverse events and biological parameters (hemoglobin, plasma iron, ferritin); format: in vivo, human
# Source text: Ten adolescents (four males, six females aged 14 to 23 yrs) with a diagnosis of Friedreich ataxia, confirmed by detection of a trinucleotide-repeat expansion in the first intron of the frataxin gene, were studied. Patients received deferiprone (Ferriprox™, Apotex Inc., Toronto, Canada) orally, in two doses for 1-5 months. Three patients were included, sequentially, for a minimum period of two months at each dose. Patient enrollment was staggered by two-weeks to enable monitoring of response. In the absence of toxicity, and with evidence of efficacy in any of the first 3 patients, a second group of 3 patients would be included at the same dose for a total duration of 6 months. If there was an absence of both efficacy and toxicity, the second group of three patients would be administered a higher dose. If toxicity developed, the current dose would be suspended and the trial resumed with the next group of patients at a lower dose. The patients were on idebenone (10 mg/kg/day, in three doses) for at least two years prior to inclusion and were kept on the drug at the same dose for the duration of the trial. MRI examinations were done at inclusion and at 1, 2, 4 and 6 months. The protocol was promoted by Assistance Publique-Hopitaux de Paris and approved by the local ethical committee and registered at the National Health Authority (AFSSAPS) and at the International Protocol Registration System (www.clinicaltrials.gov). A written informed consent was obtained from patients and parents.
# The International Cooperative Ataxia Rating Score (ICARS) was used to assess the symptoms of ataxia before and after 1-5 months (Cano et al. International cooperative ataxia rating scale (ICARS): Appropriate for studies of Friedreich's ataxia? Mov Disord 2005; 20:1585-91). […] Patients were monitored for neutropenia, agranulocytosis, musculoskeletal pains and zinc deficiency and had weekly blood counts, plasma iron, serum ferritin and transferrin concentration measurements, as well as assessments of renal and liver function.
smiles,measurement,setting,value
"Cc1c(O)c(=O)ccn1C [Deferiprone, 3-hydroxy-1,2-dimethylpyridin-4-one]",peak concentration relative to thalassemia patients treated with 25 mg/kg three times daily,[1],about three times
same,deferiprone detectable in serum for up to,[1]; HPLC,up to 7 h
same,deferiprone detectable in serum from (time after dosing),[1]; HPLC,≥ 0.5 h
same,half-life,"[1]; both sexes, cynomolgus monkey, serum, oral, range in individuals",0.35 to 2.39 h
same,"Iron content, Skeletal Muscle","[2]; 89 doses in 127 days, ±SD, Fe-control 205 ± 109, Naive 50 ± 17",146 ± 49 micrograms per gram dry tissue
same,"Iron content, Thyroid","[2]; 89 doses in 127 days, ±SD, Fe-control 583 ± 275, Naive 95 ± 13",425 ± 228 micrograms per gram dry tissue
same,"Iron content, Kidney","[2]; 89 doses in 127 days, ±SD, Fe-control 801 ± 39, Naive 305 ± 80",642 ± 104 micrograms per gram dry tissue
same,"Iron content, Heart","[2]; 89 doses in 127 days, ±SD, Fe-control 1,088 ± 36, Naive 276 ± 25",586 ± 143 micrograms per gram dry tissue
same,"Iron content, Lung","[2]; 89 doses in 127 days, ±SD, Fe-control 1,234 ± 227, Naive 376 ± 45",1065 ± 101 micrograms per gram dry tissue
same,"Iron content, Liver","[2]; 89 doses in 127 days, ±SD, Fe-control 11,534 ± 554, Naive 376 ± 127","7,780 ± 1,637 micrograms per gram dry tissue"
same,effect on iron levels in organs,[2]; iron-loaded rats,decreased the iron levels in the liver and heart and most other organs
same,relaxation rate R2* in dentate nuclei,[3]; after one month,16.6 ± 1.3 s⁻¹
same,relaxation rate R2* in dentate nuclei,[3]; after two months,15.9 ± 0.6 s⁻¹
same,signs of toxicity,[4]; 20 mg/kg/day oral,"without signs of toxicity, other than minor adverse effects, such as nausea"
same,adverse events,"[4]; 80 mg/kg/day oral, first patient (P1), terminated at day 17, slowly reversed on drug termination","fatigue, headache, nausea, dizziness, then floppiness, poor head control, abnormal eye movements and fluctuating consciousness"
same,impact on the levels of hyposideremic anemia and hypoferritinemia,[4]; regardless of the dose (20 and 30 mg/kg/day),negligible impact
